In general, viability refers to a read-out of living cells in per cent, often relative to untreated cells.

Molecules are shown by their SMILES.

This data set is described as follows: in vitro. Particulars: human, hela cells, % viability.
As for `COc1ccc(N(C)C(=O)N[C@@H]2CC[C@@]3(c4ccc(OC)c(OC)c4)CCN(C)[C@H]3C2)cc1` [CBK045653T], the viability at 28.5 h, 10 µM is 112%.

For the compound `O=C(CSc1nc(=O)cc(O)[nH]1)c1ccccc1` [CBK026570], the viability at 28.5 h, 10 µM amounted to 96.7%.

In the case of `O=C(O)[C@@H]1CSC(c2ccc(C(F)(F)F)cc2)N1` (some centres unmarked) [CBK286921], the viability at 28.5 h, 10 µM was found to be 87.7%.

On to `CC(C)N1CNc2c(c(=O)nc(O)n2Cc2ccccc2)C1` [CBK291139], for which the viability at 28.5 h, 10 µM is 92.5%.

For the compound `O=C(c1ccccc1)N1CCC(c2cc3ncccc3[nH]2)CC1` [CBK283385], the viability at 28.5 h, 10 µM came out at 89.4%.

With `CN(C)CCN1CCN(c2nc(-c3cccc4cccnc34)cnc2N)CC1` [CBK063464], the viability at 28.5 h, 10 µM was 94.3%.

`Cc1cc(CNS(=O)(=O)c2cccc3nonc23)nn1C` [CBK062157]: the viability at 28.5 h, 10 µM was 98.2%.

With `CCn1c(SCC(=O)Nc2ccc([N+](=O)[O-])cc2O)nnc1-c1ccccc1` [CBK268730], the viability at 28.5 h, 10 µM is 87.2%.

As to `NS(=O)(=O)c1ccc(NC(=S)Nc2nn(Cc3ccc(Cl)cc3Cl)cc2Cl)cc1` [CBK267020], the viability at 28.5 h, 10 µM amounted to 90.6%.

For the compound `O=C1N=C(NC2CCCCC2)SC1Cc1nc2ccccc2o1` (centres unmarked) [CBK067970], the viability at 28.5 h, 10 µM came out at 96.4%.

Consider `CCc1ccccc1NC(=O)CN1CCCCC1C(=O)O` (centres unmarked) [CBK287179], for which the viability at 28.5 h, 10 µM amounted to 92.4%.

With `Clc1ccc(COc2nccnc2OC2CCN(CC3CC3)CC2)cc1Cl` [CBK083123T], the viability at 28.5 h, 10 µM was 92.4%.

Turning to `COc1cccc(CCNC(=O)CCN2C(=O)CCC2=O)c1` [CBK023150], the viability at 28.5 h, 10 µM came out at 91.8%.

On to `CSCCC(C(=O)O)N1CNC(=S)NC1` (centres unmarked) [CBK011382], for which the viability at 28.5 h, 10 µM came to 92.3%.

`CC(=O)Nc1ccc(S(=O)(=O)N2CCCC(CO)C2)cc1` (centres unmarked) [CBK262108]: the viability at 28.5 h, 10 µM amounted to 98.6%.

As for `COc1cc(S(=O)(=O)NC2CC(C)(C)NC(C)(C)C2)ccc1F` [CBK266561], the viability at 28.5 h, 10 µM turned out to be 92%.

With `CCCS(=O)(=O)Nc1nccnc1N1CCN(c2cnccn2)CC1` [CBK048828], the viability at 28.5 h, 10 µM was 85.5%.

With `CC(C)(C)NC(=O)C[C@@H]1CCNC[C@@H]1Cc1cc(-c2ccc(F)cc2)on1` [CBK288802], the viability at 28.5 h, 10 µM came out at 99.2%.

As to `CC(C)(C)OC(=O)NCCNCc1ccccc1C(F)(F)F` [CBK056695], the viability at 28.5 h, 10 µM came to 80%.

`Cc1cccc(N2CCN(C(=O)C3C4CCC(O4)C3C(=O)O)CC2)c1C` (centres unmarked) [CBK287044]: the viability at 28.5 h, 10 µM came out at 90%.

Consider `Cn1cc(-c2nccnc2OCCn2cccc2)cn1` [CBK107079], for which the viability at 28.5 h, 10 µM is 88.6%.

For the compound `O=C(NCc1ccc(F)cc1)N1CCCC(CO)C1` (centres unmarked) [CBK156056], the viability at 28.5 h, 10 µM worked out at 102%.

For `CCc1cc(OCc2ccc(Cn3nc(NC(C)=O)c4ccccc43)cc2)c2ccccc2n1` [CBK048402], the viability at 28.5 h, 10 µM was 91%.

For the compound `O=C(C1CC2C=CC1C21CC1)N1CCC(Oc2ccccc2F)CC1` (centres unmarked) [CBK282179], the viability at 28.5 h, 10 µM is 103%.

For `Cn1c(N2CC[C@H](O)C2)nc2cc(C(=O)NC3CCNCC3)ccc21` [CBK306873], the viability at 28.5 h, 10 µM was 98.1%.

Turning to `CN(C(=O)C1CCc2nn(C)c(=O)n2C1)C1Cc2ccccc2C1` (centres unmarked) [CBK307108], the viability at 28.5 h, 10 µM stood at 107%.

Take `CC1CCN(CCOCC(O)CNS(=O)(=O)O)CC1` (centres unmarked) [CBK261454N]: the viability at 28.5 h, 10 µM worked out at 124%.

On to `Cc1cc(N2CCC(N(C)C)CC2)nc(N)n1` [CBK167267], for which the viability at 28.5 h, 10 µM stood at 106%.

On to `O=C(NC(=S)N1C[C@@H]2C[C@@H](C1)c1cccc(=O)n1C2)c1ccco1` [CBK288492], for which the viability at 28.5 h, 10 µM is 110%.

Regarding `CCCS(=O)(=O)NC1CC(C)(C)Cc2c1cnn2-c1ccc(OC)cc1` (centres unmarked) [CBK306730], the viability at 28.5 h, 10 µM is 103%.

With `O=C(CN1CCCCC1)Nc1sc2c(c1C(=O)Nc1ccccc1)CCCC2` [CBK267974], the viability at 28.5 h, 10 µM came out at 104%.

As for `CC(=O)N[C@@H](C(=O)N1CC[C@@H]2NC(=O)[C@@H](Cc3ccccc3)NC(=O)C3(C/C=C/C[C@H]2C1)CCOCC3)C(C)C` [CBK292198], the viability at 28.5 h, 10 µM amounted to 97.1%.

The values above are taken from PMC12040169 (PLOS Biology, 2025).
